Test system: STZ induced diabetic nephropathy in rats
Assay: Study 4: HCQ and its combination with Losartan, Telmisartan, Azilsartan and Ramipril, with Glimepiride control
Assay type: in vivo, Wistar rats
Conditions: for HDL / TC / TG / GSH / TBARS / Total protein kidney / Creatinine / Total protein / Urea: after 8th week; for Glucose Day1 / Glucose Day14 / Glucose Day28 / Glucose Day42 / Glucose Day56: blood; for GSH / TBARS / Total protein kidney: kidney homogenate; for Creatinine / Total protein / Urea: serum
Description: The methods described in Terri et al, Diabetes Volume, 1997, 46:1612-1618, and Takashi et al, Jpn J. Pharmacol, 1997, 75, 59-64, were followed for inducing Diabetes in rats by injecting Streptozotocin. The Efficacy of the drugs was tested in two different models, one involving comparison with diabetic control (i.e. Diabetic Rats not treated with any medication) and the other involving comparison with the anti-diabetic control group (i.e. Diabetic rats administered Glimepiride) in two separate studies.
Wistar rats of either sex weighing 150-200 g were divided randomly into 28 groups consisting of 6 animals each. Diabetes was induced in rats by single administration of streptozotocin (55 mg/kg/i.p) dissolved in 0.1 M-citrate buffer, pH 4.5. Group 1 (normal control) consisted of normal rats that neither received streptozotocin nor any test drug; Group 2 served as Diabetic control; Group 3 was diabetic rats treated with Hydroxychloroquine (35 mg/kg); Group 4 was diabetic rats treated with Hydroxychloroquine (45 mg/kg) and Group 5 was diabetic rats treated with Hydroxychloroquine (70 mg/kg); Group 6 was diabetic rats treated with Losartan (5.5 mg/kg); Group 7 was diabetic rats treated with Losartan (11 mg/kg); Group 8 was diabetic rats treated with combination of Losartan (5.5 mg/kg) and Hydroxychloroquine (45 mg/kg); Group 9 was diabetic rats treated with combination of Losartan (11 mg/kg) and Hydroxychloroquine (35 mg/kg); Group 10 was diabetic rats treated with Ramipril (0.6 mg/kg); Group 11 was diabetic rats treated with Ramipril (0.3 mg/kg); Group 12 was diabetic rats treated with combination of Ramipril (0.6 mg/kg) and Hydroxychloroquine (35 mg/kg); Group 13 was diabetic rats treated with combination of Ramipril (0.3 mg/kg) and Hydroxychloroquine (45 mg/kg); Group 14 was diabetic rats treated with combination of Ramipril (0.6 mg/kg) and Hydroxychloroquine (45 mg/kg); Group 15 was diabetic rats treated with combination of Ramipril (0.3 mg/kg) and Hydroxychloroquine (35 mg/kg); Group 16 was diabetic rats treated with Telmisartan (9.5 mg/kg); Group 17 was diabetic rats treated with Telmisartan (4.5 mg/kg); Group 18 was diabetic rats treated with combination of Telmisartan (9.5 mg/kg) and Hydroxychloroquine (35 mg/kg); Group 19 was diabetic rats treated with combination of Telmisartan (4.5 mg/kg) and Hydroxychloroquine (45 mg/kg); Group 20 was diabetic rats treated with combination of Telmisartan (9.5 mg/kg) and Hydroxychloroquine (45 mg/kg); Group 21 was diabetic rats treated with combination of Telmisartan (4.5 mg/kg) and Hydroxychloroquine (35 mg/kg); Group 22 was diabetic rats treated with Azilsartan (4.5 mg/kg); Group 23 was diabetic rats treated with Azilsartan (2.5 mg/kg); Group 24 was diabetic rats treated with combination of Azilsartan (4.5 mg/kg) and Hydroxychloroquine (35 mg/kg); Group 25 was diabetic rats treated with combination of Azilsartan (2.5 mg/kg) and Hydroxychloroquine (45 mg/kg); Group 26 was diabetic rats treated with combination of Azilsartan (4.5 mg/kg) and Hydroxychloroquine (45 mg/kg); Group 27 was diabetic rats treated with combination of Azilsartan (2.5 mg/kg) and Hydroxychloroquine (35 mg/kg); Group 28 served as Anti-Diabetic control wherein diabetic rats were treated with antidiabetic drug Glimepiride (GLM) (1 mg/kg).
The study drugs were dissolved/suspended in vehicle and administered orally once a day for eight weeks. The diabetes mellitus induced nephropathy was assessed by estimating the level of serum urea, serum creatinine and total serum protein content after completion of eighth week of study. TBARS, GSH and Total Protein were measured as markers of renal oxidative stress in Kidney Homogenate after completion of eighth week of study. Blood glucose levels were also assessed at weekly interval.

[1] = dose mg/kg: HCQ 35, LT 5.5, RM 0.3, TL 4.5, AZ 2.5, alone or combined with HCQ 35
[2] = dose mg/kg: HCQ 45, LT 11, RM 0.6, TL 9.5, AZ 4.5, alone or combined with HCQ 45

With `CCOc1nc2cccc(C(=O)O)c2n1Cc1ccc(-c2ccccc2-c2nc(=O)o[nH]2)cc1` [Azilsartan] the HDL [1] was 27.17 ± 1.17 mg/dL, the TC [1] was 142 ± 2.1 mg/dL and the TG [1] was 97 ± 5.66 mg/dL. For the same compound, the HDL [2] was 26.67 ± 1.51 mg/dL, the TC [2] was 141.17 ± 2.32 mg/dL and the TG [2] was 103 ± 3.9 mg/dL. The “Glucose Day1” value [1] was 267.17 ± 12.21 mg/dL, the “Glucose Day1” value [2] was 278.5 ± 14.22 mg/dL and the “Glucose Day14” value [1] was 215.5 ± 14.01 mg/dL. For the same compound, the “Glucose Day14” value [2] was 224.17 ± 17.93 mg/dL, the “Glucose Day28” value [1] was 180 ± 8.00 mg/dL and the “Glucose Day28” value [2] was 179 ± 7.13 mg/dL. The “Glucose Day42” value [1] was 160.67 ± 6.12 mg/dL, the “Glucose Day42” value [2] was 158.67 ± 6.77 mg/dL and the “Glucose Day56” value [1] was 141 ± 6.924 mg/dL. For the same compound, the “Glucose Day56” value [2] was 139.83 ± 4.79 mg/dL, the GSH [1] was 0.86 ± 0.21 nM/mg and the TBARS [1] was 0.6 ± 0.11 nM/mg. The Total protein kidney [1] was 874.5 ± 21.80 µg/mL, the GSH [2] was 1.26 ± 0.44 nM/mg and the TBARS [2] was 0.58 ± 0.14 nM/mg. The Total protein kidney [2] was 837.5 ± 20.15 µg/mL, the Creatinine [1] was 3.61 ± 0.16 mg/dL and the Total protein [1] was 4.76 ± 0.15 g/dL. For the same compound, the Urea [1] was 40.83 ± 2.64 mg/dL, the Creatinine [2] was 3.44 ± 0.28 mg/dL and the Total protein [2] was 4.99 ± 0.25 g/dL. For the same compound, the Urea [2] was 41 ± 3.58 mg/dL.

From US20160030415A1, “TREATMENT AND PROPHYLAXIS OF KIDNEY DISEASES” (priority 2013, published 2016)
